From patent publication US20220372014A1, “NEUROPROTECTIVE COMPOUNDS AND METHODS OF USE THEREOF” (The Johns Hopkins University, priority 2019, published 2022) come the findings set out here.

For one test, the target named is T1, PAAN/MIF WT or variants (Homo sapiens, UniProt P14174).
T1 construct: made in house; host or cells: Escherichia coli
Kind of test: Biolayer interferometry (ForteBio Octet) binding assay. The conditions noted are these: PAAN/MIF WT. An excerpt: Purification of PAAN/MIF recombinant proteins. Human PAAN/MIF (NM_002415) cDNA and its variants were subcloned into pGEX-6β-1 vector (GE Healthcare) and mutants were generated using a QuikChange site-directed mutagenesis kit (Stratagene). The sequences were confirmed by automated DNA sequencing. The protein was expressed and purified from Escherichia coli by glutathione sepharose (GE Healthcare). The GST tag was subsequently proteolytically removed. GST protein was used as a negative control in the nuclease assay and PAAN/MIF proteins purified by FPLC using Superdex 200 10/300GL column (GE Healthcare, Life Sciences) were also used in the nuclease assays.
Biolayer interferometry assay. The dose-dependent binding of compound 121 for PAAN/MIF WT or PAAN/MIF variants were determined by a biolayer interferometry assay using Octet RED96 (ForteBio). See Guo et al. (2018) Nat. Chem. 11:254-63. All the proteins used in this assay were tagged with GST. Anti-GST biosensor tips (ForteBio) were used to immobilize the GST proteins after prewetting with 1X kinetic buffer (ForteBio). The equilibrated GST biosensors were loaded with PAAN/MIF WT or variants (25 μg/ml). Background binding controls were measured by sensors that were incubated in buffer without proteins. All assays were performed by a standard protocol in 96-well black plates (Greiner Bio) with a total volume of 200 μl per well. All the data were analyzed by Octet data analysis software.
On the technique in general: BLI is a label-free optical method that tracks binding on a fibre tip over time.

The next test has as its target T2, PARP-1 (Homo sapiens, UniProt P09874).
T2 construct: purchased Trevigen
Nature of the test: In vitro ribosylation assay (IVRA) of PARP-1. Format: biochemical. Particulars: 1 μM. How it is done: In vitro ribosylation assay of PARP-1. […] of recombinant PARP-1, activated DNA and NAD+(Trevigen) in the presence or absence of 1 μM of PARP-1 inhibitor, ABT-888 or PAAN/MIF inhibitors (compound 56 or 121) were incubated in the PARP assay buffer (Trevigen) for 30 m at room temperature and analyzed by immunoblot analysis using PAR antibody.

The next test has as its system PARP. Nature of the test: MNNG-induced PAR accumulation (PARP activation), western blot. Format: cell-based. Particulars: FIG. 12A. On the procedure:
Tissue lysate preparation and western blot analysis. Dissected brain regions of interest were homogenized and prepared in lysis buffer [50 mM Tris-HCl (pH 7.4), 150 mM NaCl, 1 mM EDTA, 1% Triton x-100, 0.5% SDS, 0.5% sodium-deoxycholate, phosphatase inhibitor mixture I and II (Sigma-Aldrich, St. Louis, Mo.), and complete protease inhibitor mixture (Roche, Indianapolis, Ind.)]. The samples were rotated at 4° C. for 30 min for the complete lysis and centrifugated at 15,000×g for 30 min. Protein concentrations were determined using the BCA assay (Pierce) and samples were separated using SDS polyacrylamide gels and transferred onto nitrocellulose membranes. The blots were blocked with 5% non-fat milk in TBS-T (Tris buffered saline with 0.1% Tween—20) for 1 h, probed using various primary antibodies. Target antigens were incubated with appropriate HRP-conjugated secondary antibodies (Cell signaling) and were visualized by ECL substrate.
Cell culture, transfection, primary neuronal culture and treatment. SH-SY5Y cells (ATCC) were cultured in DMEM containing 10% fetal bovine serum and penicillin/streptomycin at 37° C. under 5% C02. The cells were transfected using PolyFect reagent (Qiagen). Parthanatos was induced by the treatment of 50 μM MNNG for 15 min in SH-SY5Y cells. ABT-888 or PAAN/MIF inhibitors were pretreated with indicated concentration 1 h before MNNG treatment and cell death were assessed after 24 h. Primary cortical neurons from WT, PAAN/MIF KO, E22Q KI or P1G KI embryos were prepared as previously described See Kam et al. (2018) Science 362:eaat8407. Briefly, the cortex was dissected and cultured at embryonic day 16 in neurobasal media supplemented with B-27, 0.5 mM L-glutamine, penicillin and streptomycin (Invitrogen). Primary neurons were infected with AAV2-control, AAV2-PAAN/MIF WT, AAV2-PAAN/MIF E22Q, AAV2-PAAN/MIF E22A or AAV2-MIF P1G (ViGene Biosciences) at days in vitro (DIV) 4-5. ABT-888 or PAAN/MIF inhibitors were applied to neurons 1 h before α-syn PFF treatment. The neuron growth medium was replaced with fresh medium alone or including inhibitors every 3-4 days. α-syn PFF was added at DIV 7 and further incubated for indicated times followed by the cell death assay or biochemical experiments.

A further test concerns human cortical neurons. Kind of test: α-syn PFF-induced cell death in human cortical neurons (Hoechst and PI staining). Type of test: cell-based. The conditions noted are these: pre-incubated 1 h, α-syn PFF 14 days. On the procedure: Preparation of human cortical neurons. Human H1 embryonic stem cells (ESCs) were differentiated into cortical neurons as previously described. See Xu et al. (2016) Sci. Transl. Med. 8:333ra48. Briefly, ESC colonies detached from mouse embryonic fibroblasts (MEFs) were grown in suspension in human ESC medium without FGF2 for 6 days in low-attachment six-well plates (Corning). On day 7, free-floating embyroid bodies (EB)s were transferred to Matrigel coated plates to allow the complete attachment of EB and formation of rosette neuronal aggregates (RONAs). RONAs were manually microisolated and maintained as neurospheres for 1 day and then dissociated into single cells and plated on laminin/poly-D-lysine-coated plates for further experiments. […]
Cell death and viability assessment. Primary cultured cortical neurons were treated with 5 μg/ml of α-syn PFF for 14 days and cell death was determined by staining of all nuclei with 7 μM Hoechst 33342 and dead cell nuclei with 2 μM propidium iodide (PI) (Invitrogen). The numbers of total and dead cells were counted with the Axiovision 4.6 software (Carl Zeiss). Cell viability was determined by fluorescence at an excitation wavelength 570 nm and an emission wavelength 585 nm using Alamar Blue (Invitrogen).

T2 sequence (P09874 whole entry): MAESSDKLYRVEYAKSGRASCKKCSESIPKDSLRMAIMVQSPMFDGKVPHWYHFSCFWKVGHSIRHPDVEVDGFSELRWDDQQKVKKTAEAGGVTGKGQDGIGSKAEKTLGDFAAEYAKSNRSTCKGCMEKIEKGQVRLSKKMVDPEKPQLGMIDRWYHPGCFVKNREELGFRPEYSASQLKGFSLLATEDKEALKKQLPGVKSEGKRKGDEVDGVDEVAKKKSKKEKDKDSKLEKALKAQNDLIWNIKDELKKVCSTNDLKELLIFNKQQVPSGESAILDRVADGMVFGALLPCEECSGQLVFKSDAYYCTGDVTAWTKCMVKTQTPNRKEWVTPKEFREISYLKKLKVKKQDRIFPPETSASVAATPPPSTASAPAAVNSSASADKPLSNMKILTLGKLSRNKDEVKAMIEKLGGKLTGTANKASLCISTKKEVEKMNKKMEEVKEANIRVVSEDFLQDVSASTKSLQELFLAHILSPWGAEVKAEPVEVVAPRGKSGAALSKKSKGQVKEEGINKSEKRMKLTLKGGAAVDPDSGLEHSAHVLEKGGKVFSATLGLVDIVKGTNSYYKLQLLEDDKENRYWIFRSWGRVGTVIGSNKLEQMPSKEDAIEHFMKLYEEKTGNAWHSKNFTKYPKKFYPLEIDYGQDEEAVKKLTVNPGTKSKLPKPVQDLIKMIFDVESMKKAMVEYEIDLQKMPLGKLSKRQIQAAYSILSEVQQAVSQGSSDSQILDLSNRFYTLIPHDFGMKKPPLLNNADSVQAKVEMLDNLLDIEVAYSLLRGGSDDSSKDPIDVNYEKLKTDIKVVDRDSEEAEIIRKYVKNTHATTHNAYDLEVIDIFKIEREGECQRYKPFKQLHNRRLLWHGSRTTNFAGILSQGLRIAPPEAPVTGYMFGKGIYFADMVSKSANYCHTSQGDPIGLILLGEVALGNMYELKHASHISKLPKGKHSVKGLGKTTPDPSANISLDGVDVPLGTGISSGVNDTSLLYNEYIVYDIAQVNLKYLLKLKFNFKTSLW

With `COc1ccc(CC[C@H]2OC(=O)[C@@H]3CCCCN3C(=O)C(=O)C(C)(C)COC(=O)C=CCCN(C)C(=O)[C@@H]3CCCN3C(=O)[C@H](COC(C)(C)C)N(C)C(=O)C(c3ccccc3)NC(=O)[C@H](C)N(C)C(=O)COc3cc(F)cc2c3)cc1OC` (mixture of isomers) [compound 121], the “Kd, binding affinity of PAAN/MIF” value on PAAN/MIF WT or variants was 1.56 µM. Also, the “ABT-888 sensitive PARP activity” value at PARP-1 is given as “failed to inhibit”.

For `COc1ccc(CC[C@H]2OC(=O)[C@@H]3CCCCN3C(=O)C(=O)C(C)(C)COC(=O)C=CCCN(C)C(=O)[C@@H]3CCCN3C(=O)[C@H](COC(C)(C)C)N(C)C(=O)C(c3ccccc3)NC(=O)CN(C)C(=O)COc3cccc2c3)cc1OC` (stereo partly shown) [compound 41], in the test on PARP, the “MNNG-induced PARP activation (PAR accumulation)” value (from here on “MNNG-induced PARP activation”) is given as “did not affect”.

As for `COc1ccc(CC[C@H]2OC(=O)[C@@H]3CCCCN3C(=O)C(=O)C(C)(C)COC(=O)C=CCCN(C)C(=O)[C@@H]3CCCN3C(=O)[C@H](COC(C)(C)C)N(C)C(=O)C(c3ccccc3)NC(=O)[C@H](C)N(C)C(=O)COc3cccc2c3)cc1OC` (stereo partly shown) [compound 56], the “cell death in human cortical neurons treated with human α-syn PFF” value in the test with human cortical neurons is listed as “protected against cell death similar to ABT-888”. Also, in the test on PARP, the “MNNG-induced PARP activation” value was “did not affect”. The “ABT-888 sensitive PARP activity” value at PARP-1 is on record as “failed to inhibit”.

As to `COc1ccc(CC[C@H]2OC(=O)[C@@H]3CCCCN3C(=O)C(=O)C(C)(C)COC(=O)C=CCCN(C)C(=O)CNC(=O)[C@H](C(C)C)N(C)C(=O)[C@@H](Cc3ccccc3)NC(=O)[C@H](CC(C)C)N(C)C(=O)CCC(=O)Nc3cccc2c3)cc1OC` [compound 76], the “MNNG-induced PARP activation” value with PARP is on record as “did not affect”.

Consider `COc1ccc(CC[C@H]2OC(=O)[C@@H]3CCCCN3C(=O)C(=O)C(C)(C)COC(=O)C=CCCN(C)C(=O)[C@H](C)NC(=O)[C@H](C(C)C)N(C)C(=O)[C@@H](Cc3ccccc3)NC(=O)[C@H](CC(C)C)N(C)C(=O)CCC(=O)Nc3cccc2c3)cc1OC` [compound 77], for which the “cell death in human cortical neurons treated with human α-syn PFF” value in the test on human cortical neurons is “protected against cell death similar to ABT-888”. Also, in the test on PARP, the “MNNG-induced PARP activation” value is given as “did not affect”.

`COc1ccc(CC[C@H]2OC(=O)[C@@H]3CCCCN3C(=O)C(=O)C(C)(C)COC(=O)C=CCCN(C)C(=O)[C@@H]3CCCN3C(=O)[C@H](CO)N(C)C(=O)C(c3ccccc3)NC(=O)[C@H](C)N(C)C(=O)COc3cccc2c3)cc1OC` (stereo partly shown) [compound 97]: the “binding to PAAN/MIF” value on PAAN/MIF WT or variants is on record as “lack of binding”.
